According to patent publication US12428415B2, “Matriptase 2 inhibitors and uses thereof” (Disc Medicine, Inc., priority 2018, dated 2025):
Read-outs that look alike come from different tables or passages of the source.

Biological target: T1, Human Recombinant Matriptase 2 (Homo sapiens, UniProt Q8IU80)
T1 construct: purchased Enzo Life Sciences (an in-house preparation was also used) ALX-201-752-1
T1 sequence (Q8IU80 1-811): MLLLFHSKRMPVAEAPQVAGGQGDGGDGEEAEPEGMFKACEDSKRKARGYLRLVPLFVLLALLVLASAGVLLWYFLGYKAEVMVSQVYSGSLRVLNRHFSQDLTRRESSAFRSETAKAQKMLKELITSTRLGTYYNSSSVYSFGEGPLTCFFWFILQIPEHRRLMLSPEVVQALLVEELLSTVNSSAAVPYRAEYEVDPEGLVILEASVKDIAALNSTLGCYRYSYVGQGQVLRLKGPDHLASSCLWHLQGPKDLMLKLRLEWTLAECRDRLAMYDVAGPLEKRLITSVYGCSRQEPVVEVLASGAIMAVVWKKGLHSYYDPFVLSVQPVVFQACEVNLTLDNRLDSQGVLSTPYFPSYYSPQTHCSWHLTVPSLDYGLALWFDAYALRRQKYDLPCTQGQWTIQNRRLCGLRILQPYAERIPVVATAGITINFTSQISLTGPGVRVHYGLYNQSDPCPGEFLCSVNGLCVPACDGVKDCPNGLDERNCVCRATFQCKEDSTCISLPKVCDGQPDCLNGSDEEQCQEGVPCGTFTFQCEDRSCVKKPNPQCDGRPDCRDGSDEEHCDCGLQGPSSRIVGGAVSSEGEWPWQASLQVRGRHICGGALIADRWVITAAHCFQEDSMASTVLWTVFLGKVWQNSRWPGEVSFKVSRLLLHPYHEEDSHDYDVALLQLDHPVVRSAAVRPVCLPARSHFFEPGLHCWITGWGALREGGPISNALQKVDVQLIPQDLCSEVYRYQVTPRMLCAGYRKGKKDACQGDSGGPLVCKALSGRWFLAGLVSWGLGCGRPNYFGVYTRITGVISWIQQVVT
Experiment: Matriptase 2 fluorescence based inhibition assay, Method A (100 mM TRIS pH 9, 1 mg/mL BSA)
Format: biochemical
Settings: read-out: Mar-2 % inhibition at 1 uM
Procedure, shortened: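 Enzyme (7 nM commercial or 15 nM in-house) preincubated 30 min with compound in 100 mM TRIS pH 9, 1 mg/mL BSA, 1% DMSO at 25° C. Boc-Gln-Ala-Arg-AMC substrate at 100 μM; fluorescence (Ex 360/Em 480 nm) read 60 min later. Screened at 1 and 10 μM; IC50 from variable-slope sigmoidal fit.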

N=C(N)c1ccc2cc(C(=O)N3CC[C@@H](N)C3)n(CCc3ccccc3)c2c1 [Compound I-300]
inhibition at 1 µM (at 1 uM, Assay Used = A): 25 to 50%

N=C(N)c1ccc2cc(C(=O)Nc3cccc(-n4cccn4)c3)n(Cc3ccc(C(N)=O)cc3)c2c1 [Compound I-132]
inhibition at 1 µM (1 uM, Assay Used A): 25 to 50%

N=C(N)c1ccc2cc(C(=O)N3CCC(CCNC(=O)c4ccccn4)CC3)n(Cc3ccc(C(F)(F)F)cc3)c2c1 [Compound I-286]
inhibition at 1 µM (at 1 uM, Assay Used = A): 0 to 25%

CCOC(=O)CCCC1CCN(C(=O)c2cc3ccc(C(=N)N)cc3n2Cc2ccc(C(F)(F)F)cc2)CC1 [Compound I-281]
inhibition at 1 µM (at 1 uM, Assay Used = A): 0 to 25%

N=C(N)c1ccc2c(N)c(C(=O)N3CCC(CCNC(=O)O)CC3)n(Cc3ccc(Oc4ccccc4)cc3)c2c1 [Compound I-347]
inhibition at 1 µM (at 1 uM, Assay Used = A): 0 to 25%

CCOC(=O)c1ccc(Cn2c(C(=O)N3CCC(CCN)CC3)c(N)c3ccc(C(=N)N)cc32)cc1 [Compound I-346]
inhibition at 1 µM (at 1 uM, Assay Used = A): 0 to 25%

CC(C)CCn1c(C(=O)N2CCC(F)(F)CC2)cc2ccc(C(=N)N)cc21 [Compound I-271]
inhibition at 1 µM (at 1 uM, Assay Used = A): 0 to 25%

N=C(N)c1ccc2cc(C(=O)Nc3cccc(-n4cc(C(F)(F)F)cn4)c3)n(Cc3ccc(C(N)=O)cc3)c2c1 [Compound I-165]
inhibition at 1 µM (1 uM, Assay Used A): 0 to 25%

N=C(N)c1ccc2cc(C(=O)Nc3ccc(Cl)cc3)n(Cc3ccc(C(N)=O)cc3)c2c1 [Compound I-84]
inhibition at 1 µM (1 uM, Assay Used A): 0 to 25%

CC(C)c1ccc(Cn2c(C(=O)N3CCC(F)(F)CC3)cc3ccc(C(=N)N)cc32)cc1 [Compound I-296]
inhibition at 1 µM (at 1 uM, Assay Used = A): 0 to 25%

NC(=O)c1ccc(Cn2c(C(=O)Nc3cc(N4CCCC4)ccn3)cc3ccc(/C(N)=N/O)cc32)cc1 [Compound I-269, 1-(4-Carbamoylbenzyl)-6-(N′-hydroxycarbamimidoyl)-N-(4-(pyrrolidin-1-yl)pyridin-2-yl)-1H-indole-2-carboxamide]
inhibition at 1 µM (at 1 uM, Assay Used = A): 0 to 25%

N=C(N)c1ccc2cc(C(=O)N[C@H]3CC[C@H](N)CC3)n(Cc3cccc(NC(=O)CCN)c3)c2c1 [Compound I-257, N-((1r,4r)-4-aminocyclohexyl)-1-(3-(3-aminopropanamido)benzyl)-6-carbamimidoyl-1H-indole-2-carboxamide]
inhibition at 1 µM (at 1 uM, Assay Used = A): 50 to 75%

N=C(N)c1ccc2cc(C(=O)N[C@H]3CC[C@H](N)CC3)n(CS(=O)(=O)c3ccccc3)c2c1 [Compound I-39]
inhibition at 1 µM (1 uM, Assay Used A): 25 to 50%

N=C(N)c1ccc2cc(C(=O)Nc3nc4ccccc4s3)n(Cc3ccc(C(N)=O)cc3)c2c1 [Compound I-265]
inhibition at 1 µM (at 1 uM, Assay Used = A): 0 to 25%

CC(C)OC(=O)NC(=N)c1ccc2cc(C(=O)Nc3cccc(N4CCCC4)c3)n(Cc3ccc(C(N)=O)cc3)c2c1 [Compound I-142]
inhibition at 1 µM (1 uM, Assay Used A): 25 to 50%

C[C@H](NC(=O)c1cc2ccc(C(=N)N)cc2n1Cc1ccc(C(N)=O)cc1)c1ccc(Cl)c(Cl)c1 [Compound I-107]
inhibition at 1 µM (1 uM, Assay Used A): 0 to 25%

CN1CCC(NC(=O)c2cc3ccc(C(=N)N)cc3n2Cc2ccc(C(N)=O)cc2)CC1 [Compound I-206]
inhibition at 1 µM (at 1 uM, Assay Used = A): 25 to 50%

N=C(N)c1ccc2cc(C(=O)N3CCC(CF)CC3)n(Cc3ccc(NC(=O)CCN)cc3)c2c1 [Compound I-377]
inhibition at 1 µM (at 1 uM, Assay Used = A): 0 to 25%

CC(C)N1CC[C@H](NC(=O)c2cc3ccc(C(=N)N)cc3n2Cc2ccc(C(N)=O)cc2)C1 [Compound I-196]
inhibition at 1 µM (1 uM, Assay Used A): 0 to 25%

N=C(N)c1ccc2cc(C(=O)NC3CC=CCC3)n(Cc3ccc(NC(=O)CCN)cc3)c2c1 (stereo not shown) [Compound I-264, 1-(4-(3-Aminopropanamido)benzyl)-6-carbamimidoyl-N-(cyclohex-3-en-1-yl)-1H-indole-2-carboxamide]
inhibition at 1 µM (at 1 uM, Assay Used = A): 0 to 25%

N=C(N)c1ccc2cc(C(=O)N3CCC[C@@H](CF)C3)n(Cc3cccc(C(N)=O)c3)c2c1 [Compound I-325]
inhibition at 1 µM (at 1 uM, Assay Used = A): 0 to 25%

N=C(N)c1ccc2cc(C(=O)N3CCC(F)CC3)n(Cc3ccc(C(=O)NCCN)cc3)c2c1 [Compound I-393]
inhibition at 1 µM (at 1 uM, Assay Used = A): 0 to 25%

N=C(N)c1ccc2cc(C(=O)Nc3cccc(C(F)(F)F)c3)n(CCS(=O)(=O)c3ccccc3)c2c1 [Compound I-40, 6-Carbamimidoyl-1-(2-(phenylsulfonyl)ethyl)-N-(3-(trifluoromethyl)phenyl)-1H-indole-2-carboxamide]
inhibition at 1 µM (1 uM, Assay Used A): 0 to 25%

N=C(N)c1ccc2cc(C(=O)N3CCC(CCN)CC3)n(Cc3ccc(Oc4ccc(F)cc4)nc3)c2c1 [Compound I-317]
inhibition at 1 µM (at 1 uM, Assay Used = A): 25 to 50%

N=C(N)c1ccc2cc(C(=O)N3CC[C@H](F)C3)n(Cc3cccc(NC(=O)CCN)c3)c2c1 [Compound I-368]
inhibition at 1 µM (at 1 uM, Assay Used = A): 0 to 25%

N=C(N)c1ccc2cc(C(=O)Nc3cc(F)c(F)c(Br)c3)n(Cc3ccc(C(N)=O)cc3)c2c1 [Compound I-130]
inhibition at 1 µM (1 uM, Assay Used A): 0 to 25%

N=C(N)c1ccc2cc(C(=O)N3CCC(F)CC3)n(CCS(=O)(=O)c3ccccc3)c2c1 [Compound I-343]
inhibition at 1 µM (at 1 uM, Assay Used = A): 0 to 25%

CCOc1ccc(-c2cccc(Cn3c(C(=O)N[C@H]4CC[C@H](N)CC4)cc4ccc(C(=N)N)cc43)c2)cc1 [Compound I-239]
inhibition at 1 µM (at 1 uM, Assay Used = A): 25 to 50%

N=C(N)c1ccc2cc(C(=O)Nc3cccc(N4CCOCC4)c3)n(Cc3ccc(C(N)=O)cc3)c2c1 [Compound I-129]
inhibition at 1 µM (1 uM, Assay Used A): 0 to 25%

N=C(N)c1ccc2cc(C(=O)Nc3ccc(N4CC[C@H](F)C4)cc3)n(Cc3ccc(C(N)=O)cc3)c2c1 [Compound I-105]
inhibition at 1 µM (1 uM, Assay Used A): 25 to 50%

N=C(N)c1ccc2cc(C(=O)N[C@@H](CO)c3ccccc3)n(Cc3ccc(C(N)=O)cc3)c2c1 [Compound I-85]
inhibition at 1 µM (1 uM, Assay Used A): 0 to 25%

C[C@H](NC(=O)OC(C)(C)C)C(=O)O/N=C(\N)c1ccc2cc(C(=O)Nc3cccc(N4CCCC4)c3)n(Cc3ccc(C(N)=O)cc3)c2c1 [Compound I-158, (S)-tert-butyl (1-(((amino(1-(4-carbamoylbenzyl)-2-((3-(pyrrolidin-1-yl)phenyl)carbamoyl)-1H-indol-6-yl)methylene)amino)oxy)-1-oxopropan-2-yl)carbamate]
inhibition at 1 µM (1 uM, Assay Used A): 0 to 25%

CC(C)c1ccc(Cn2c(C(=O)N3CCC(F)(F)C3)cc3ccc(C(=N)N)cc32)cc1 [Compound I-294]
inhibition at 1 µM (at 1 uM, Assay Used = A): 0 to 25%

N=C(N)c1ccc2cc(C(=O)Nc3ccc(C(=O)N4CCCC4)cc3)n(Cc3ccc(C(N)=O)cc3)c2c1 [Compound I-78]
inhibition at 1 µM (1 uM, Assay Used A): 0 to 25%

N=C(N)c1ccc2cc(C(=O)NCc3ccccc3)n(Cc3ccc(C(N)=O)cc3)c2c1 [Compound I-77]
inhibition at 1 µM (1 uM, Assay Used A): 0 to 25%

N=C(NC(=O)Oc1ccccc1)c1ccc2cc(C(=O)Nc3cccc(N4CCCC4)c3)n(Cc3ccc(C(N)=O)cc3)c2c1 [Compound I-148]
inhibition at 1 µM (1 uM, Assay Used A): 0 to 25%

NC(=O)c1ccc(Cn2c(C(=O)Nc3cccc(N4CCCC4)c3)cc3ccc(C(N)=O)cc32)cc1 [Compound I-117, 1-(4-Carbamoylbenzyl)-N^2-(3-(pyrrolidin-1-yl)phenyl)-1H-indole-2,6-dicarboxamide]
inhibition at 1 µM (1 uM, Assay Used A): 0 to 25%

CC1CCC(NC(=O)c2cc3ccc(C(=N)N)cc3n2Cc2ccc(C(=O)NCCN)cc2)CC1 (stereo not shown) [Compound I-224, 1-(4-((2-Aminoethyl)carbamoyl)benzyl)-6-carbamimidoyl-N-(4-methylcyclohexyl)-1H-indole-2-carboxamide]
inhibition at 1 µM (at 1 uM, Assay Used = A): 0 to 25%

CCOC(=O)NC(=N)c1ccc2cc(C(=O)Nc3cccc(N4CCCC4)n3)n(Cc3ccc(C(N)=O)cc3)c2c1 [Compound I-183, Ethyl ((1-(4-carbamoylbenzyl)-2-((6-(pyrrolidin-1-yl)pyridin-2-yl)carbamoyl)-1H-indol-6-yl)(imino)methyl)carbamate]
inhibition at 1 µM (1 uM, Assay Used A): 0 to 25%

N=C(N)c1ccc2cc(C(=O)Nc3ccc(N)nc3)n(Cc3ccc(C(F)(F)F)cc3)c2c1 [Compound I-1, N-(6-aminopyridin-3-yl)-6-carbamimidoyl-1-(4-(trifluoromethyl)benzyl)-1H-indole-2-carboxamide]
inhibition at 1 µM (1 uM, Assay Used A): 0 to 25%

N=C(N)c1ccc2cc(C(=O)N3CCC(F)(F)C3)n(Cc3cccc(NC(=O)CCN)c3)c2c1 [Compound I-369]
inhibition at 1 µM (at 1 uM, Assay Used = A): 0 to 25%

N=C(N)c1ccc2cc(C(=O)NC3CCC(N)CC3)n(Cc3ccc(OC(F)(F)F)cc3)c2c1 (stereo not shown) [Compound I-11]
inhibition at 1 µM (1 uM, Assay Used A): 25 to 50%

N=C(N)c1ccc2c(Cl)c(C(=O)NCC3CCCCC3)n(Cc3ccc(-c4ccccc4)cc3)c2c1 [Compound I-236]
inhibition at 1 µM (at 1 uM, Assay Used = A): 0 to 25%
